Experimental data published in patent US12103916B2, “Antifungal compounds” (University of Kentucky Research Foundation, priority 2016, dated 2024).
Where two headings read alike, the source gives them in different places. Marks after values point to notes of the source that are not given here.

How the values were obtained:
[1] = system: Aspergillus terreus ATCC MYA-3633; assay: MIC determination, strain M; type: cell-based; conditions: Aspergillus terreus, Table 2, all compounds and controls
Text: (§1) For all of our azole derivatives we report their MIC-0 values against C. albicans ATCC 10231 (strain A) and all Aspergillus strains (K-M), which correspond to complete growth inhibition of these fungi. […] The MIC values presented for these five control drugs were either tested herein or correspond to our previously published data^5, 16 as indicated in Table 1.
(§2) Antifungal activity in the absence or presence of serum.
(§3) It is important to note that all comparisons to follow will be done by using the MIC values reported in μg/mL as the data were collected that way. However, we also present in parentheses in Table 2 the corresponding values in micromolar.
(§4) In this manuscript, we performed all activity comparisons by using the MIC values reported in μg/mL (Note: the corresponding MIC values are also provided in μM into parentheses in Tables 1, 2, S1, and S2).

[2] = system: C. albicans ATCC MYA-1237(R); assay: MIC determination, strain F; type: cell-based, Candida albicans; conditions: Candida albicans
Text: as §1, §2, §3, §4

[3] = system: Aspergillus terreus ATCC MYA-3633; conditions: Table 1; strain M; control azoles; previously reported (refs 5, 16); cited from earlier work
[4] = system: Candida parapsilosis ATCC 22019; assay: MIC determination, strain J; type: cell-based; conditions: Lodderomyces parapsilosis
Experimental: (§5) The antifungal activity of our new azole compounds 1-9 and 24-41 was first evaluated against a panel of seven Candida albicans strains (A-G), three non-albicans Candida strains […], and three Aspergillus strains (K-M) in a concentration range of 0.03-31.2 μg/mL (Table 1). […] For all of our azole derivatives we report their MIC-0 values against C. albicans ATCC 10231 (strain A) and all Aspergillus strains (K-M), which correspond to complete growth inhibition of these fungi. […] The commercially available antifungals AmB, FLC, ITC, POS, and VOR were used as reference drugs for comparison. The MIC values presented for these five control drugs were either tested herein or correspond to our previously published data^5, 16 as indicated in Table 1.
(§6) Antifungal activity in the absence or presence of serum. The antifungal activity of the newly prepared alkylated piperazine/morpholine-azole hybrids 16-28, of intermediate 14 that we used to verify that only final compounds exert antifungal activity, as well as that of alkylated piperazine/morpholine derivatives 1-10 were first evaluated against a panel of seven C. albicans (ATCC 10231 (A), ATCC 64124(R) (B), ATCC MYA-2876(S) (C), ATCC 90819(R) (D), ATCC MYA-2310(S) (E), ATCC MYA-1237(R) (F), and ATCC MYA-1003(R) (G)), three non-albicans Candida (C. glabrata ATCC 2001 (H), C. krusei ATCC 6258 (I), and C. parapsilosis ATCC 22019 (J)), and three Aspergillus (A. flavus ATCC MYA-3631 (K), A. nidulans ATCC 38163 (L), and A. terreus ATCC MYA-3633 (M)) strains using a concentration range of 0.03-31.3 μg/mL (Table 2).
as §3, with “Commercially available antifungal agents such as AmB, CAS, FLC, and VOR were used as positive controls for comparison. […] It” for “It”
(§7) We used the commercially available antifungal agents such as AmB, caspofungin (CAS), FLC, and VOR as positive controls for comparison. For derivatives 5-16 as well as the reference drugs AmB and CAS, we reported MIC-0 values, which correspond to no visible growth. […] In this manuscript, we performed all activity comparisons by using the MIC values reported in μg/mL (Note: the corresponding MIC values are also provided in μM into parentheses in Tables 1, 2, S1, and S2).

[5] = system: C. albicans ATCC MYA-2310(S); assay: MIC determination, strain E; type: cell-based, Candida albicans; conditions: Candida albicans
Experimental: as §5, §6
as §3, with “Commercially available antifungal agents such as AmB, CAS, FLC, and VOR were used as positive controls for comparison. […] It” for “It”
as §7

[6] = system: ergosterol biosynthetic pathway (sterol 14α-demethylase) in C. albicans ATCC 10231 (strain A); assay: Sterol composition by GC-MS, strain A; type: cell-based, Candida albicans
Text: FIG. 7A-FIG. 7H includes FIG. 7A. A simplified ergosterol biosynthetic pathway and products resulting from inhibition of ERG11. FIG. 7B-G. include GC-MS chromatograms of the sterols extracted from untreated and antifungals treated C. albicans strains. […] The peaks are for lanosterol (1), ergosterol (2), eburicol (3), 14-alpha-methyl ergosta 8,24(28)-dien-3-beta,6-alpha-diol (4), and unknown sterols (5 and 6). FIG. 7H is a table summarizing the percentage of each sterol from panels B-G.
FIG. 13A. A simplified ergosterol biosynthetic pathway and products resulting from inhibition of ERG11. FIG. 13B-FIG. 13F. GC-MS chromatograms of the sterols extracted from untreated and antifungal-treated C. albicans ATCC 10231 (strain A). […] The peaks in these chromatograms are for lanosterol (1), ergosterol (2), eburicol (3), 14α-methyl ergosta-8,24(28)-dien-3β,6α-diol (4), and three unknown sterols (5-7). FIG. 13G includes a table summarizing the percentage of each sterol from panels B-F.
No drug controls were also performed (FIGS. 7D and G).
Determination of sterol composition in c. albicans in the presence and absence of drugs. […] By using gas chromatography-mass spectrometry (GC-MS), we investigated the potential of the synthetic compounds to exert their antifungal activity by inhibiting the sterol 14α-demethylase enzyme of the ergosterol biosynthetic pathway (FIG. 13). […] A no drug control was also performed (FIG. 13A).
Since out of our compounds displaying antifungal activity only compound 8 caused membrane disruption of C. albicans ATCC 10231 (strain A) in the membrane permeabilization assay (section 2.6), we decided to explore by using gas chromatography-mass spectrometry (GC-MS) the effect of compounds 8 and 9 on sterol composition during ergosterol biosynthesis (the mechanism of action of other conventional azoles). […] We also used VOR at 0.12 μg/mL and no drug control for comparison.

[7] = system: C. albicans ATCC MYA-2876(S); assay: MIC determination, strain C; type: cell-based, Candida albicans; conditions: Candida albicans
Experimental: as §5, §6
as §3, with “Commercially available antifungal agents such as AmB, CAS, FLC, and VOR were used as positive controls for comparison. […] It” for “It”
as §7

[8] = read-out: MIC (MIC-2), in parentheses
[9] = Ex.2 series, VOR 0.12, 20 0.48, 26 0.975 μg/mL
[10] = Ex.3 series, VOR 0.12, 8 and 9 at sub-MIC […] and 0.975 μg/mL

C[C@@H](c1ncncc1F)[C@](O)(Cn1cncn1)c1ccc(F)cc1F [VOR, voriconazole]
MIC ([1]; read-out: MIC (MIC-0)): 0.12 µg/mL
MIC ([1]; read-out: MIC (MIC-0), in parentheses): 0.34 µM
MIC ([2]; read-out: MIC (MIC-2)): 7.8 µg/mL
MIC [2, 8]: 22.3 µM
MIC (MIC-2) [3]: 0.12^c μg/mL
MIC ([4]; ATCC22019, read-out: MIC, Candida parapsilosis ATCC 22019 (J) (+10% FBS), Table 3, Ex.2 compounds, +10% FBS): 0.015 µg/mL
MIC ([4]; ATCC22019, Table 3, Ex.2 compounds, no FBS, read-out: MIC, Candida parapsilosis ATCC 22019 (J) (no FBS)): 0.015 µg/mL
MIC ([4]; ATCC22019, read-out: MIC (MIC-2)): < 0.03 µg/mL
MIC ([4]; ATCC22019, read-out: MIC (MIC-2), in parentheses): < 0.06 µM
MIC ([5]; read-out: MIC (MIC-2)): 0.975 µg/mL
MIC [5, 8]: 2.8 µM
ergosterol (2), percentage of sterols ([6]; Ex.2 series, FLC 1.95, VOR 0.12, 20 0.48, 26 0.975 μg/mL): 64.93%
eburicol (3), percentage of sterols [6, 9]: 2.14%
lanosterol (1), percentage of sterols [6, 9]: 18.49%
eburicol (3), percentage of sterols [6, 10]: 1.73%
ergosterol (2), percentage of sterols [6, 10]: 50.80%
lanosterol (1), percentage of sterols [6, 10]: 15.21%
MIC ([7]; read-out: MIC (MIC-2)): 1.95 µg/mL
MIC [7, 8]: 5.6 µM
